Experimental findings from PMC3230571 (International Journal of Nanomedicine, 2011) are described below.

This assay deals with rats with streptozotocin-induced diabetes. Put plainly: Hypoglycemic effect and relative bioavailability after oral administration. The format is in vivo, rat. To be noted: diabetic rats fasted 12 hours, oral 20 IU/kg, n = 6.

As for insulin, the “Hypoglycemic effect (plasma glucose relative to the initial value)” value is “did not appreciably lower the blood glucose levels”.
